# Laboratory results: patent publication US20260355196A1, “INHIBITORS AND DEGRADERS OF PIP4K PROTEIN” (Larkspur Biosciences, Inc., priority 2023, published 2026)
# Molecular target: T1, PIP4K2C (Homo sapiens, UniProt Q8TBX8)
# T1 sequence (Q8TBX8 1-421): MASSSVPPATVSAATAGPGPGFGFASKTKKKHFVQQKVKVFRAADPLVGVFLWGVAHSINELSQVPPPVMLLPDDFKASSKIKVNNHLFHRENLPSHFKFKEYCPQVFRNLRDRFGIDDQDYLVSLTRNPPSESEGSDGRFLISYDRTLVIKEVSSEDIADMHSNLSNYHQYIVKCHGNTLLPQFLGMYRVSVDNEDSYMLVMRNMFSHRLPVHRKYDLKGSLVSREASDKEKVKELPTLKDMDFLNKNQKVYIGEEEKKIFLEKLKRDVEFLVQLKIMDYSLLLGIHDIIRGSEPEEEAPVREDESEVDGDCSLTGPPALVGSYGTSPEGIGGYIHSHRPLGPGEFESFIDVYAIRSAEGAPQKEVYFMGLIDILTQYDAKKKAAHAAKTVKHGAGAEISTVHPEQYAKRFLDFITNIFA
# Assay: HiBiT PIP4K2C degradation assay in MOLT-4 cells (endogenous PIP4K2C C-terminally tagged with HiBiT)
# Type: cell-based
# Parameters: untagged in primary human PBMCs and monocyte-derived dendritic cells
# Conditions: 6 hours of incubation time, rather than 24 hours; MOLT-4, top concentration 10 micromolar; read-out: HiBIT-degradation MOLT4 PIP4k2C DC50 (6 hours, marked *)
# Summary of the method: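 Cells are plated onto compound dilutions (10 points, 3-fold, top 10 micromolar) and incubated 24 or 6 hours at 37 C. Lytic HiBiT detection then quantifies tagged endogenous PIP4K2C in MOLT-4, and a Hill fit yields DC50.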
row,SMILES,DC50 [nM]
1,"O=C1CCC(Nc2ccc(N3CCN(C4CCN(C(=O)O[C@H]5CC[C@H](Nc6ncc(F)c(-c7cccc(N8CCCCC8)c7)n6)CC5)CC4)CC3)c(F)c2)C(=O)N1 (stereo partly drawn) [Compound 687, trans-4-((5-fluoro-4-(3-(piperidin-1-yl)phenyl)pyrimidin-2-yl)amino)cyclohexyl 4-(4-(4-((2,6-dioxopiperidin-3-yl)amino)-2-fluorophenyl)piperazin-1-yl)piperidine-1-carboxylate]",< 500
2,"O=C1CCC(Nc2ccc(N3CCN(C4CCN(C(=O)O[C@H]5CC[C@H](Nc6ncc(F)c(-c7cccc(N8CCOCC8=O)c7)n6)CC5)CC4)CC3)c(F)c2)C(=O)N1 (stereo partly drawn) [Compound 688, trans-4-((5-fluoro-4-(3-(3-oxomorpholino)phenyl)pyrimidin-2-yl)amino)cyclohexyl 4-(4-(4-((2,6-dioxopiperidin-3-yl)amino)-2-fluorophenyl)piperazin-1-yl)piperidine-1-carboxylate]",< 500
3,"O=C1CCC(Nc2ccc(C3CCN(C4CCN(C(=O)O[C@H]5CC[C@H](Nc6ncc(F)c(-c7cccc(N8CCCCC8)c7)n6)CC5)CC4)CC3)c(F)c2)C(=O)N1 (stereo partly drawn) [Compound 689, trans-4-((5-fluoro-4-(3-(piperidin-1-yl)phenyl)pyrimidin-2-yl)amino)cyclohexyl 4-(4-((2,6-dioxopiperidin-3-yl)amino)-2-fluorophenyl)-[1,4′-bipiperidine]-1′-carboxylate]",< 500
4,"O=C1CCC(Nc2ccc(C3CCN(C4CCN(C(=O)O[C@H]5CC[C@H](Nc6ncc(F)c(-c7cccc(N8CCOCC8=O)c7)n6)CC5)CC4)CC3)c(F)c2)C(=O)N1 (stereo partly drawn) [Compound 690, trans-4-((5-fluoro-4-(3-(3-oxomorpholino)phenyl)pyrimidin-2-yl)amino)cyclohexyl 4-(4-((2,6-dioxopiperidin-3-yl)amino)-2-fluorophenyl)-[1,4′-bipiperidine]-1′-carboxylate]",< 500
5,"O=C1CCC(Nc2ccc(N3CCC(CC4(O)CCN(C(=O)[C@H]5CC[C@H](Nc6ncc(F)c(-c7cccc(-n8ccccc8=O)c7)n6)CC5)CC4)CC3)c(F)c2)C(=O)N1 (stereo partly drawn) [Compound 691, trans-3-((3-fluoro-4-(4-((1-(4-((5-fluoro-4-(3-(2-oxopyridin-1 (2H)-yl)phenyl)pyrimidin-2-yl)amino)cyclohexane-1-carbonyl)-4-hydroxypiperidin-4-yl)methyl)piperidin-1-yl)phenyl)amino)piperidine-2,6-dione]",< 500
6,"O=C1CCC(Nc2ccc(C3CCN([C@H]4CC[C@H](NC(=O)[C@H]5CC[C@H](Nc6ncc(F)c(-c7cccc(-n8ccccc8=O)c7)n6)CC5)CC4)CC3(F)F)c(F)c2)C(=O)N1 (stereo partly drawn) [Compound 692, trans-N-(trans-4-(4-(4-((2,6-dioxopiperidin-3-yl)amino)-2-fluorophenyl)-3,3-difluoropiperidin-1-yl)cyclohexyl)-4-((5-fluoro-4-(3-(2-oxopyridin-1 (2H)-yl)phenyl)pyrimidin-2-yl)amino)cyclohexane-1-carboxamide]",< 500
7,"O=C1CCC(Nc2ccc(C3CCN(C[C@H]4CC[C@H](C(=O)N5CCC(Nc6ncc(F)c(-c7cccc(-n8ccccc8=O)c7)n6)CC5)CC4)CC3)c(F)c2)C(=O)N1 (stereo partly drawn) [Compound 693, 3-((3-fluoro-4-(1-(((trans)-4-(4-((5-fluoro-4-(3-(2-oxopyridin-1 (2H)-yl)phenyl)pyrimidin-2-yl)amino)piperidine-1-carbonyl)cyclohexyl)methyl)piperidin-4-yl)phenyl)amino)piperidine-2,6-dione]",< 500
8,"O=C1CCC(Nc2ccc(C3CCN(C4CCC(C(=O)N[C@H]5CC[C@H](Nc6ncc(F)c(-c7cccc(-n8ccccc8=O)c7)n6)CC5)CC4F)CC3)c(F)c2)C(=O)N1 (stereo partly drawn) [Compound 694, (1R,3S,4R)-4-(4-(4-((2,6-dioxopiperidin-3-yl)amino)-2-fluorophenyl)piperidin-1-yl)-3-fluoro-N-((trans)-4-((5-fluoro-4-(3-(2-oxopyridin-1 (2H)-yl)phenyl)pyrimidin-2-yl)amino)cyclohexyl)cyclohexane-1-carboxamide]",< 500
9,"O=C1CCC(Nc2ccc(C3CCN(C4CCN(C(=O)O[C@H]5CC[C@H](Nc6ncc(F)c(-c7cccc(-n8ccccc8=O)c7)n6)CC5)CC4F)CC3)c(F)c2)C(=O)N1 (stereo partly drawn) [Compound 695, trans-4-((5-fluoro-4-(3-(2-oxopyridin-1 (2H)-yl)phenyl)pyrimidin-2-yl)amino)cyclohexyl 4-(4-((2,6-dioxopiperidin-3-yl)amino)-2-fluorophenyl)-3′-fluoro-[1,4′-bipiperidine]-1′-carboxylate]",< 500
10,"O=C1CCC(Nc2ccc(C3CCN([C@H]4CC[C@H](NC(=O)[C@H]5CC[C@H](Nc6ncc(F)c(-c7ccnc(-n8ccccc8=O)c7)n6)CC5)CC4)CC3)c(F)c2)C(=O)N1 (stereo partly drawn) [Compound 696, trans-N-(trans-4-(4-(4-((2,6-dioxopiperidin-3-yl)amino)-2-fluorophenyl)piperidin-1-yl)cyclohexyl)-4-((5-fluoro-4-(2-oxo-2H-[1,2′-bipyridin]-4′-yl)pyrimidin-2-yl)amino)cyclohexane-1-carboxamide]",< 500
11,"O=C1CCC(Nc2ccc(C3CCN(CCC4CCN(C(=O)O[C@H]5CC[C@H](Nc6ncc(F)c(-c7cccc(-n8ccccc8=O)c7)n6)CC5)CC4)CC3)c(F)c2)C(=O)N1 (stereo partly drawn) [Compound 697, trans-4-((5-fluoro-4-(3-(2-oxopyridin-1 (2H)-yl)phenyl)pyrimidin-2-yl)amino)cyclohexyl 4-(2-(4-(4-((2,6-dioxopiperidin-3-yl)amino)-2-fluorophenyl)piperidin-1-yl)ethyl)piperidine-1-carboxylate]",< 500
12,"O=C1CCC(Nc2ccc(N3CCC(N4CCN(C(=O)O[C@H]5CC[C@H](Nc6ncc(F)c(-c7cccc(-n8ccccc8=O)c7)n6)CC5)CC4)CC3)c(F)c2)C(=O)N1 (stereo partly drawn) [Compound 698, trans-4-((5-fluoro-4-(3-(2-oxopyridin-1 (2H)-yl)phenyl)pyrimidin-2-yl)amino)cyclohexyl 4-(1-(4-((2,6-dioxopiperidin-3-yl)amino)-2-fluorophenyl)piperidin-4-yl)piperazine-1-carboxylate]",< 500
13,"O=C1CCC(Nc2ccc(N3CCN([C@H]4CC[C@H](OC(=O)N5CCC(Nc6ncc(F)c(-c7cccc(-n8ccccc8=O)c7)n6)CC5)CC4)CC3)c(F)c2)C(=O)N1 (stereo partly drawn) [Compound 699, trans-(1R,4r)-4-(4-(4-(((R)-2,6-dioxopiperidin-3-yl)amino)-2-fluorophenyl)piperazin-1-yl)cyclohexyl 4-((5-fluoro-4-(3-(2-oxopyridin-1 (2H)-yl)phenyl)pyrimidin-2-yl)amino)piperidine-1-carboxylate]",< 500
14,"O=C1CCC(Nc2ccc(N3CCC(N4CCC(NC(=O)[C@H]5CC[C@H](Nc6ncc(F)c(-c7cccc(N8CCCCC8)c7)n6)CC5)CC4)C(F)C3)c(F)c2)C(=O)N1 (stereo partly drawn) [Compound 700, trans-N-(1′-(4-((2,6-dioxopiperidin-3-yl)amino)-2-fluorophenyl)-3′-fluoro-[1,4′-bipiperidin]-4-yl)-4-((5-fluoro-4-(3-(piperidin-1-yl)phenyl)pyrimidin-2-yl)amino)cyclohexane-1-carboxamide]",< 500
15,"O=C1CCC(Nc2ccc(N3CCC(N4CCC(NC(=O)[C@H]5CC[C@H](Nc6ncc(F)c(-c7cccc(N8CCCCC8=O)c7)n6)CC5)CC4)C(F)C3)c(F)c2)C(=O)N1 (stereo partly drawn) [Compound 701, trans-N-(1′-(4-((2,6-dioxopiperidin-3-yl)amino)-2-fluorophenyl)-3′-fluoro-[1,4′-bipiperidin]-4-yl)-4-((5-fluoro-4-(3-(2-oxopiperidin-1-yl)phenyl)pyrimidin-2-yl)amino)cyclohexane-1-carboxamide]",< 500
16,"O=C1CCC(Nc2ccc(N3CCC(N4CCC(C(=O)NC5CCC(Nc6ncc(F)c(-c7cccc(-c8ccc[nH]c8=O)c7)n6)CC5)CC4)CC3)c(F)c2)C(=O)N1 [Compound 702, trans-1′-(4-(((S)-2,6-dioxopiperidin-3-yl)amino)-2-fluorophenyl)-N-((1r,4r)-4-((5-fluoro-4-(3-(2-oxo-1,2-dihydropyridin-3-yl)phenyl)pyrimidin-2-yl)amino)cyclohexyl)-[1,4′-bipiperidine]-4-carboxamide]",< 500
17,"O=C1CCC(Nc2ccc(N3CCN(C[C@H]4CC[C@H](CC(=O)N[C@H]5CC[C@H](Nc6ncc(F)c(-c7cccc(-c8ccc[nH]c8=O)c7)n6)CC5)CC4)CC3)c(F)c2)C(=O)N1 (stereo partly drawn) [Compound 703, trans-2-((1r,4R)-4-((4-(4-((2,6-dioxopiperidin-3-yl)amino)-2-fluorophenyl)piperazin-1-yl)methyl)cyclohexyl)-N-((1r,4R)-4-((5-fluoro-4-(3-(2-oxo-1,2-dihydropyridin-3-yl)phenyl)pyrimidin-2-yl)amino)cyclohexyl)acetamide]",< 500
18,"O=C1CCC(Nc2ccc(N3CCC(CN4CCC(CC(=O)N[C@H]5CC[C@H](Nc6ncc(F)c(-c7cccc(-n8ccccc8=O)c7)n6)CC5)CC4)CC3)c(F)c2)C(=O)N1 (stereo partly drawn) [Compound 704, trans-2-(1-((1-(4-((2,6-dioxopiperidin-3-yl)amino)-2-fluorophenyl)piperidin-4-yl)methyl)piperidin-4-yl)-N-(4-((5-fluoro-4-(3-(2-oxopyridin-1 (2H)-yl)phenyl)pyrimidin-2-yl)amino)cyclohexyl)acetamide]",< 500
